This note sets out measurements from patent US20120309796A1, “BENZOCYCLOHEPTENE ACETIC ACIDS” (priority 2011, published 2012).

SMILES strings stand for the structures.

The assay has as its target T1, human CRTH2 (Homo sapiens, UniProt Q9Y5Y4).
T1 sequence (Q9Y5Y4 1-395): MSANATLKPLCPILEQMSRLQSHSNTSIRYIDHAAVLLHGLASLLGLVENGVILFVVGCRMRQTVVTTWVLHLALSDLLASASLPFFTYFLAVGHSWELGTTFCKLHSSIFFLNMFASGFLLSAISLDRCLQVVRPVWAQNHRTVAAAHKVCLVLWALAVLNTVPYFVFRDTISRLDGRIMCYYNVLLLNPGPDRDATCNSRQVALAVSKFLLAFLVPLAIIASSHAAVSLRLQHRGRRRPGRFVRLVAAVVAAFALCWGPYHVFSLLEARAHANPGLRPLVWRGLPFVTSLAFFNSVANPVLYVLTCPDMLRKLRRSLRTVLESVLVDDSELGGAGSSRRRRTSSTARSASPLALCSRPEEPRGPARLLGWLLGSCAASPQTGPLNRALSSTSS
Nature of the assay: Calcium Flux Assay Using Fluorometric Imaging Plate Reader (FLIPR). The class given is cell-based. Details: expressed in transfected cells; host or cells: CHO-K1 previously transfected with G-alpha 16. The following applies: CHO-K1 cells with G-alpha 16 and human CRTH2; inhibition of DK-PGD2 ligand-induced Ca2+ flux. As for the experimental part:
CHO-K1 cells previously transfected with G-alpha 16 were subsequently transfected with the human CRTH2 receptor and the neomycin resistance gene. Following selection in 800 μg/mL G418 (geneticin), individual clones were assayed for their receptor expression based on staining with an anti human CRTH2 IgG, followed by assaying for their response to 13,14-dihydro-15-keto Prostaglandin D2 (DK-PDG2) (ligand) in the Ca^2+ Flux assay. Positive clones were then cloned by limiting dilution cloning. The transfected cells were cultured in Ham's F-12 medium supplemented with 10% fetal bovine serum, 2 mM glutamine, 100 U/mL penicillin/100 μg/mL streptomycin, 200 μg/mL hygromycin B, and 800 μg/mL G418 (geneticin). Cells were harvested with trypsin-EDTA (trypsin-ethylenediaminetetraacetic acid) and counted using ViaCount® reagent (from Guava Technologies, Inc. which contains two DNA-binding dyes that enable the reagent user to distinguish between viable and non-viable cells). The cell suspension volume was adjusted to 2.5×10^5 cells/mL with complete growth media. Aliquots of 50 μL were dispensed into BD Falcon™ 384 well black/clear microplates (from BD Biosciences, a division of Becton, Dickinson and Company) and the microplates were placed in a 37° C. CO2 incubator overnight. The following day, the microplates were used in the assay.
Loading Buffer containing dye (from the FLIPR® Calcium 3 Assay Kit from Molecular Devices, a division of MDS Analytical Technologies and MDS Inc.) was prepared by dissolving the contents of one bottle into 200 mL Hank's Balanced Salt Solution containing 20 mM HEPES (4-(2-hydroxyethyl)-1-piperazineethanesulfonic acid) and 2.5 mM probenecid. Growth media was removed from the cell plates and 25 μL of Hank's Balanced Salt Solution (HBSS) containing 20 mM HEPES, 0.05% BSA and 2.5 mM probenecid was added to each well followed by 25 μL of diluted dye using a Multidrop dispenser. The plates were then incubated for 1 hour at 37° C.
During the incubation, test compound plates were prepared by adding 90 μL of HBSS/20 mM HEPES/0.005% BSA buffer to the 2 μL of serial diluted compounds. To prepare serial diluted compounds, 20 mM stocks of compounds were dissolved in 100% DMSO. The compound dilution plate was set up as follows: well #1 received 5 μL of compound plus 10 μL of DMSO. Wells 2-10 received 10 μL of DMSO. 5 μL was mixed and transferred from well #1 into well #2. 1:3 serial dilutions were continued out 10 steps. 2 μl of diluted compound was transferred into duplicate wells of a 384 well “assay plate” and then 90 μL of buffer was added.
After incubation, both the cell and “assay plate” plates were brought to the fluorometric imaging plate reader (FLIPR®) and 20 μL of the diluted compounds were transferred to the cell plates by the FLIPR®. Plates were then incubated for 1 hour at room temperature. After the 1 hour incubation, plates were returned to the FLIPR® and 20 μL of 4.5× concentrated ligand was added to the cell plates. During the assay, fluorescence readings were taken simultaneously from all 384 wells of the cell plate every 1.5 seconds. Five readings were taken to establish a stable baseline, then 20 μL of sample was rapidly (30 μL/sec) and simultaneously added to each well of the cell plate. The fluorescence was continuously monitored before, during and after sample addition for a total elapsed time of 100 seconds. Responses (increase in peak fluorescence) in each well following agonist addition were determined. The initial fluorescence reading from each well, prior to ligand stimulation, was used as a zero baseline value for the data from that well. The responses were expressed as % inhibition of the buffer control. […]

The term IC50 denotes the concentration that inhibits the measured activity by half.

Turning to `O=C(O)COc1cccc2c1CCCCC2NS(=O)(=O)c1cc(C(F)(F)F)cc(C(F)(F)F)c1` (single isomer, unassigned) [Example 46, [5-(3,5-Bis-trifluoromethyl-benzenesulfonylamino)-6,7,8,9-tetrahydro-5H-benzocyclohepten-1-yloxy]-acetic acid], the IC50 came out at 188 nM.
Regarding `O=C(O)COc1cccc2c1CCCCC2NS(=O)(=O)c1cc(C(F)(F)F)cc(C(F)(F)F)c1` (centres unmarked) [Example 1, [5-(3,5-Bis-trifluoromethyl-benzenesulfonylamino)-6,7,8,9-tetrahydro-5H-benzocyclohepten-1-yloxy]-acetic acid], the IC50 turned out to be 114 nM.
